Read-outs that look alike come from different tables or passages of the source.
Experiments:
miRNA-211 = test: miRNA expression in temporal cortex 48 hours after muscarinic agonist injection (RT-PCR); format: in vivo, mouse; conditions: 48 hours after injections
Protocol: (§1) β-actin and GAPDH were used as reference transcripts. Annealing temperature was 60° C. for all primers. Serial dilution of samples served to evaluate primers efficiency and the appropriate cDNA concentration that yields linear changes. -RT controls verified lack of genomic DNA. miRNA quantification using The TaqMan miRNA Assays (Applied Biosystems) was conducted in two-step RT-PCR kit according to the manufacturer's instructions.

miRNA-132 = test: as above; format: in vivo, mouse; conditions: 48 hours after injections
Protocol: as §1

hnRNP A/B = hnRNP A/B expression in primary neuronal cultures incubated with cholinergic agonist; format: cell-based, mouse; conditions: 10 μM, 48 hours
Protocol: Primary mixed cortical cultures: Primary mouse cultures of neurons and glia were produced from E16 embryos. Pregnant mice were anesthetized with isoflurane and sacrificed by cervical dislocation. The uterus was removed and placed on ice. After 5 minutes the heads were dissected under binocular and cortices were removed, placed in cold DMEM, and triturated with a scalpel and up and down pippeting. The medium was replaced with neurobasal medium supplemented with 1:50 B27, 2 mM L-Glutamine (Invitrogen, Grand Island, N.Y.), 50 U penicillin and 50 μg/ml streptomycin (Biological Industries, Beit-haemek, Israel), cells were counted and plated in 12 or 24-well plated pre-treated with 10 μg/ml poly-lysine (Sigma, St. Louis). For confocal microscopy cells were plated on glass cover slips similarly treated.
Immunohistochemistry and immunofluorescence: Paraffin slides were rehydrated by washing in xylene and serial dilutions of ethanol in water. Heat-induced antigen retrieval involved boiling slides in 10 mM pH 6 citrate buffer for 10 minutes. Hydrogen peroxide methanol quench was performed for slides later developed with 3,3′-Diaminobenzidine tetrahydrochloride (DAB). […]

miR-211 = test: Antisense blockage of miR-211 in cultured N9 cells, hnRNP A/B levels; format: cell-based

`CC[C@@H]1C(=O)OC[C@@H]1Cc1cncn1C` [muscarinic agonist, pilocarpine] was tested, and the “levels of miRNA-211” value (miRNA-211) was “reduced” and the “levels of miRNA-132” value (miRNA-132) was “increased”.
`C[N+](C)(C)CCOC(N)=O` [carbachol] was tested, and the “expression of hnRNP A/B” value (hnRNP A/B) was “increased”.
For “Antisense oligonucleotides to miR-211: locked nucleic acid oligonucleotide complementary to miR-211; miR211 antagonist e.g. SEQ ID NO: 87 (antisense AGGCGAAGGATGACAAAGGGAA; locked nucleic acid oligonucleotide, pattern not given here)”, the “hnRNP A/B levels” value (miR-211) was “increased” and the “hnRNP A/B levels” value (miR-211; listed as locked nucleic acid complementary oligonucleotide) was “increases”.

Reference: patent publication US20130210901A1, “METHOD OF TREATING NEURODEGENERATIVE DISEASES” (Yissum Research Development Company of the Hebrew …, priority 2010, published 2013)
